Results as given in PMC5433929, “High-resolution crystal structure of the human CB1 cannabinoid receptor” (Nature, 2016).

How the values were obtained:
[1] = molecular target: CB2; parameters: method as in PMID 17327489; settings: cited from earlier work
[2] = molecular target: CB1-PGS (Homo sapiens, UniProt P21554, DEL304-332/H302F/INS301[…]); experiment: Differential scanning fluorimetry on detergent-solubilized receptor; settings: 10 μM ligand
[3] = molecular target: CB1; parameters: method as in PMID 17327489; settings: cited from earlier work

CB1-PGS, sequence (P21554 with tags, fused parts or gaps INS301[withheld]/H302F/DEL304-332): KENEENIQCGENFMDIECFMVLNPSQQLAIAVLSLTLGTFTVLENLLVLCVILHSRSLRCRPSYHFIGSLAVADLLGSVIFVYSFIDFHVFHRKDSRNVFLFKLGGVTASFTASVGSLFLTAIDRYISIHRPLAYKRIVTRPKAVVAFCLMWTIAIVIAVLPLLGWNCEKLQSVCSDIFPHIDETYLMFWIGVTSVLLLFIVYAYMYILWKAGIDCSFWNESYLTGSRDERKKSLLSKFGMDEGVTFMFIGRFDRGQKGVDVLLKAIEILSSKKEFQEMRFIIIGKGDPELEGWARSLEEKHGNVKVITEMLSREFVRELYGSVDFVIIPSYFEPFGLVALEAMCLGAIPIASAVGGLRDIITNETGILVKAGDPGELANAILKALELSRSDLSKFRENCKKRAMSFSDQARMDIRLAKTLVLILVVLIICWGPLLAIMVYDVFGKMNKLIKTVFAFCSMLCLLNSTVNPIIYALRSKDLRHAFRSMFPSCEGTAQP

effect on receptor thermostability (DSF) [2]: enhanced thermostability
SMILES: C[C@H](NC(=O)C(C)(C)Oc1ccc(C(F)(F)F)cn1)[C@@H](Cc1ccc(Cl)cc1)c1cccc(C#N)c1 [taranabant, N-[(1S,2S)-3-(4-chlorophenyl)-2-(3-cyanophenyl)-1-methylpropyl]-2-methyl-2-{[5-(trifluoromethyl)pyridin-2-yl]oxy}propanamide]
Ki [1]: 170 nM | Ki [3]: 0.13 nM
